Assays:
[1] = Cytotoxicity in mock-infected MT-4 cells, MTT method; format: cell-based; conditions: human, mock-infected MT-4 cells, CC50, mock-infected MT-4 cells
[2] = system: HIV-1 mutant strain RES056 (K103N + Y181C); experiment: microbe, parasite or virus in culture; format: cell-based; conditions: Human immunodeficiency virus 1, MT4, read-out: EC50 RES056
[3] = system: HIV-1 mutant strain L100I; experiment: microbe, parasite or virus in culture; format: cell-based; conditions: Human immunodeficiency virus 1, MT4, read-out: EC50 L100I
HIV-1 WT strain (IIIB) = experiment: Anti-HIV activity against WT HIV-1; conditions: WT HIV-1 IIIB
[4] = system: HIV-1 mutant strain K103N; experiment: microbe, parasite or virus in culture; format: cell-based; conditions: Human immunodeficiency virus 1, MT4, read-out: EC50 K103N
[5] = system: HIV-1 mutant strain E138K; experiment: microbe, parasite or virus in culture; format: cell-based; conditions: Human immunodeficiency virus 1, MT4, read-out: EC50 E138K
[6] = system: HIV-1 mutant strain F227L + V106A; experiment: microbe, parasite or virus in culture; format: cell-based; conditions: Human immunodeficiency virus 1, MT4, read-out: EC50 F227L + V106A
[7] = system: HIV-1 mutant strain Y181C; experiment: microbe, parasite or virus in culture; format: cell-based; conditions: Human immunodeficiency virus 1, MT4, read-out: EC50 Y181C
[8] = system: HIV-1 mutant strain Y188L; experiment: microbe, parasite or virus in culture; format: cell-based; conditions: Human immunodeficiency virus 1, MT4, read-out: EC50 Y188L

Row | Structure (SMILES) | CC50 at 5 days [1] [nM] | EC50 [2] [nM] | EC50 [3] [nM] | SI IIIB (CC50/EC50 ratio) (HIV-1 WT strain (IIIB)) | EC50 [4] [nM] | EC50 [5] [nM] | EC50 [6] [nM] | EC50 [7] [nM] | EC50 [8] [nM]
1 | Cc1cc(C)cc(S(=O)(=O)c2c(C(=O)NCCCCNS(=O)(=O)c3ccccc3)[nH]c3ccc(Cl)cc23)c1 [R9L4, 5-Chloro-3-((3,5-dimethylphenyl)sulfonyl)-N-(4-(phenylsulfonamido)butyl)-1H-indole-2-carboxamide] | 113000 ± 26800 | > 115000 | 28 ± 8.7 | 15,106 | 150 ± 45 | 31 ± 7 | 280 ± 52 | 150 ± 33 | 870 ± 170
2 | Cc1cc(C)cc(S(=O)(=O)c2c(C(=O)NCCCCNS(=O)(=O)c3ccc(Br)cc3)[nH]c3ccc(Cl)cc23)c1 [R6L4, 5-Chloro-3-((3,5-dimethylphenyl)sulfonyl)-N-(4-((4-bromophenyl)sulfonamido)butyl)-1H-indole-2-carboxamide] | 26900 ± 16900 | > 26900 | 320 ± 150 | 347 | 690 ± 110 | 780 ± 540 | 510 ± 92 | 600 ± 31 | 1000 ± 150
3 | Cc1cc(C)cc(S(=O)(=O)c2c(C(=O)NCCNS(=O)(=O)c3ccc(Br)cc3)[nH]c3ccc(Cl)cc23)c1 [R6L2, 5-Chloro-3-((3,5-dimethylphenyl)sulfonyl)-N-(2-((4-bromophenyl)sulfonamido)ethyl)-1H-indole-2-carboxamide] | 151000 ± 19300 | ≥ 12200 | 750 ± 64 | 964 | 950 ± 160 | 1270 ± 110 | 2730 ± 480 | 1010 ± 32 | ≥ 33700
4 | Cc1cc(C)cc(S(=O)(=O)c2c(C(=O)NCCNS(=O)(=O)c3ccc(F)cc3)[nH]c3ccc(Cl)cc23)c1 [R4L2, 5-Chloro-3-((3,5-dimethylphenyl)sulfonyl)-N-(2-((4-fluorophenyl)sulfonamido)ethyl)-1H-indole-2-carboxamide] | > 222000 | 3230 ± 18 | 210 ± 36 | >7921 | 360 ± 160 | 370 ± 110 | 830 ± 120 | 370 ± 140 | 3000 ± 53
5 | Cc1cc(C)cc(S(=O)(=O)c2c(C(=O)NCCCCNS(=O)(=O)c3cccs3)[nH]c3ccc(Cl)cc23)c1 [R8L4, 5-Chloro-3-((3,5-dimethylphenyl)sulfonyl)-N-(4-(thiophene-2-sulfonamido)butyl)-1H-indole-2-carboxamide] | 86500 ± 11800 | > 86500 | 130 ± 59 | 1953 | 470 ± 69 | 190 ± 17 | 360 ± 35 | 540 | 1050 ± 35
6 | Cc1cc(C)cc(S(=O)(=O)c2c(C(=O)NCCCNS(=O)(=O)c3ccc(F)cc3)[nH]c3ccc(Cl)cc23)c1 [R4L3, 5-Chloro-3-((3,5-dimethylphenyl)sulfonyl)-N-(3-((4-fluorophenyl)sulfonamido)propyl)-1H-indole-2-carboxamide] | 35000 ± 6970 | 3550 ± 350 | 240 ± 35 | 901 | 450 ± 100 | 260 ± 17 | 1040 ± 35 | 690 ± 17 | 2840 ± 52
7 | Cc1cc(C)cc(S(=O)(=O)c2c(C(=O)NCCCCNS(=O)(=O)c3ccc(F)cc3)[nH]c3ccc(Cl)cc23)c1 [R4L4, 5-Chloro-3-((3,5-dimethylphenyl)sulfonyl)-N-(4-((4-fluorophenyl)sulfonamido)butyl)-1H-indole-2-carboxamide] | > 211000 | > 211000 | 56 ± 36 | >10,593 | 190 ± 51 | 63 ± 3 | 290 ± 120 | 200 ± 34 | 1270 ± 200
8 | Cc1ccc(S(=O)(=O)NCCCCCNC(=O)c2[nH]c3ccc(Cl)cc3c2S(=O)(=O)c2cc(C)cc(C)c2)cc1 [R1L5, 5-Chloro-3-((3,5-dimethylphenyl)sulfonyl)-N-(5-((4-methylphenyl)sulfonamido)pentyl)-1H-indole-2-carboxamide] | 113000 ± 3740 | > 113000 | 170 ± 17 | 4159 | 630 ± 17 | 180 ± 17 | 380 ± 130 | 230 ± 17 | 2530 ± 180
9 | Cc1cc(C)cc(S(=O)(=O)c2c(C(=O)NCCNS(=O)(=O)c3ccccc3F)[nH]c3ccc(Cl)cc23)c1 [R11L2, 5-Chloro-3-((3,5-dimethylphenyl)sulfonyl)-N-(2-((2-fluorophenyl)sulfonamido)ethyl)-1H-indole-2-carboxamide] | 199000 ± 8290 | 3040 ± 210 | 250 ± 71 | 11,116 | 210 ± 53 | 200 ± 36 | 1230 ± 430 | 280 ± 36 | 2680 ± 250
10 | Cc1ccc(S(=O)(=O)NCCCNC(=O)c2[nH]c3ccc(Cl)cc3c2S(=O)(=O)c2cc(C)cc(C)c2)cc1 [R1L3, 5-Chloro-3-((3,5-dimethylphenyl)sulfonyl)-N-(3-((4-methylphenyl)sulfonamido)propyl)-1H-indole-2-carboxamide] | 168000 ± 23500 | 5970 ± 650 | 540 ± 420 | 4586 | 730 ± 140 | 210 ± 140 | 1260 ± 380 | 1190 ± 300 | 7140 ± 1400
11 | Cc1cc(C)cc(S(=O)(=O)c2c(C(=O)NCCCCCNS(=O)(=O)c3ccc(Br)cc3)[nH]c3ccc(Cl)cc23)c1 [R6L5, 5-Chloro-3-((3,5-dimethylphenyl)sulfonyl)-N-(5-((4-bromophenyl)sulfonamido)pentyl)-1H-indole-2-carboxamide] | 37900 ± 6320 | > 37900 | 120 ± 39 | 501 | 740 ± 90 | 320 ± 15 | 680 ± 75 | 350 | 2470 ± 30
12 | Cc1cc(C)cc(S(=O)(=O)c2c(C(=O)NCCCCNS(=O)(=O)c3ccc([N+](=O)[O-])cc3)[nH]c3ccc(Cl)cc23)c1 [R3L4, 5-Chloro-3-((3,5-dimethylphenyl)sulfonyl)-N-(4-((4-nitrophenyl)sulfonamido)butyl)-1H-indole-2-carboxamide] | 104000 ± 31400 | 1880 ± 680 | 130 ± 18 | 3809 | 500 ± 160 | 230 ± 32 | 360 ± 32 | 400 ± 110 | 870 ± 65
13 | Cc1cc(C)cc(S(=O)(=O)c2c(C(=O)NCCCNS(=O)(=O)c3ccc(Cl)cc3)[nH]c3ccc(Cl)cc23)c1 [R7L3, 5-Chloro-3-((3,5-dimethylphenyl)sulfonyl)-N-(3-((4-chlorophenyl)sulfonamido)propyl)-1H-indole-2-carboxamide] | > 211000 | 9000 ± 510 | 98 ± 52 | >12,913 | 220 | 610 ± 120 | 2610 ± 120 | 570 ± 250 | 190 ± 190
14 | Cc1cc(C)cc(S(=O)(=O)c2c(C(=O)NCCNS(=O)(=O)c3cccc(F)c3)[nH]c3ccc(Cl)cc23)c1 [R12L2, 5-Chloro-3-((3,5-dimethylphenyl)sulfonyl)-N-(2-((3-fluorophenyl)sulfonamido)ethyl)-1H-indole-2-carboxamide] | 187000 ± 4810 | 4940 ± 1240 | 460 ± 180 | 5151 | 500 ± 89 | 440 ± 110 | 2260 ± 550 | 550 ± 89 | 3300 ± 300
15 | Cc1cc(C)cc(S(=O)(=O)c2c(C(=O)NCCNS(=O)(=O)c3ccccc3)[nH]c3ccc(Cl)cc23)c1 [R9L2, 5-Chloro-3-((3,5-dimethylphenyl)sulfonyl)-N-(2-(phenylsulfonamido)ethyl)-1H-indole-2-carboxamide] | 185000 ± 8310 | 3140 ± 110 | 260 ± 110 | 13,509 | 240 ± 37 | 220 ± 73 | 1120 ± 350 | 260 ± 73 | 2810 ± 290
16 | Cc1cc(C)cc(S(=O)(=O)c2c(C(=O)NCCCCCNS(=O)(=O)c3ccc(Cl)cc3)[nH]c3ccc(Cl)cc23)c1 [R7L5, 5-Chloro-3-((3,5-dimethylphenyl)sulfonyl)-N-(5-((4-chlorophenyl)sulfonamido)pentyl)-1H-indole-2-carboxamide] | 115000 ± 8890 | > 115000 | 61 ± 3.2 | 11,132 | 430 ± 140 | 52 ± 9 | 370 ± 110 | 190 | 3140 ± 950
17 | Cc1cc(C)cc(S(=O)(=O)c2c(C(=O)NCCNS(=O)(=O)c3cccnc3)[nH]c3ccc(Cl)cc23)c1 [R10L2, 5-Chloro-3-((3,5-dimethylphenyl)sulfonyl)-N-(2-(pyridine-3-sulfonamido)ethyl)-1H-indole-2-carboxamide] | 23400 ± 750 | 4600 ± 310 | 140 ± 46 | 3205 | 290 ± 55 | 120 ± 33 | 1480 ± 270 | 290 ± 18 | 2200 ± 400
18 | O=C1Nc2ccc(Cl)cc2[C@@](C#CC2CC2)(C(F)(F)F)O1 [EFV, Efavirenz, reference compound] | > 6340 | 480 ± 190 | 32 ± 6 |  | 100 ± 19 | 7 ± 1 | 270 ± 48 | 7 ± 2 | 270 ± 16
